How the values were obtained:
[1] = system: Methylobacter capsulatus (Y, NRRL-B-11,201); assay: Oxidation by cell suspensions of methane-grown cells; format: cell-based; conditions: growth substrate Methane; n-alkane to secondary alcohol
Procedure: (§1) The pH of the nutrient medium was adjusted to 7.0 by the addition of acid or base and 50 ml samples of the nutrient medium were charged into a plurality of 300 ml shaker flasks. The shaker flasks were inoculated with an inoculating loop of cells from an agar plate containing homogeneous colonies of the microorganisms on the plate (the purity of the isolates was confirmed by microscopic examination. The isolates had been maintained on agar plates under an atmosphere of methane and air having a 1:1 v/v gas ratio which had been transferred evey two weeks. The gaseous phase of the inoculated flasks was then replaced with a gas mixture comprised of methane and air having a ratio of 1:1 on a v/v basis. The inoculated flasks were sealed air tight and were incubated on a rotary shaker of orbital radius 2.5 cm at 250 rpm and at 30° C. for two days until turbidity in the medium had developed.
(§2) The cells were harvested by centrifugation at 10,000×g. at 4° C. for 30 minutes. The cell pellet was washed twice with a 0.15 M phosphate buffer at a pH of 7.0 (containing 0.002 M MgCl2). The washed cells were then suspended in a 0.15 M phosphate buffer at pH 7.0.
(§3) A 0.5 ml sample of each washed cell suspension (2 mg cells) was put into 10 ml vials at 4° C. which were sealed with a rubber cap. The gaseous phase of the vials was removed with vacuum and then was replaced with a gas mixture of the oxidative substrate (e.g., methane) and oxygen at a 1:1 v/v ratio. The vials were then incubated at 30 ° C. on a rotary shaker at 300 rpm. Samples of product (3 μl) were withdrawn periodically with a microsyringe and the products were analyzed by gas chromatography (ionization flame detector column).
(§4) The conditions for preparing the cell suspensions or the cell-free particulate fractions from methane-grown methylotroph microorganisms is the same as described above.

[2] = system: Methylococcus capsulatus (Texas, ATCC 19,069); assay: as above; format: cell-based; conditions: growth substrate Methane; n-alkane to secondary alcohol
Procedure: as §1, §2, §3, §4

[3] = system: Methylosinus trichosporium OB3b (NRRL B-11,196); assay: as above; format: cell-based; conditions: growth substrate Methane; n-alkane to secondary alcohol
Procedure: as §1, §2, §3, §4

[4] = system: P(40) particulate fraction of Methylosinus sp. (CRL-15, NRRL B-11,202); assay: Substrate competition: effect of methane on propylene epoxidation; format: biochemical; conditions: 30° C.
Procedure: The oxidation of methane and propylene by particulate [(P)40 and (P)80] fractions and soluble [S(80)] fraction was measured at 30° C. by estimating the production of methanol and propylene oxide, respectively. The reaction mixtures contained in […]: 150 mM potassium phosphate buffer, pH 7.0 containing 5 mM MgCl2 b, 0.6 ml; 10μ moles NADH, and cellular fraction.
Reaction mixtures were contained in 10 ml vials at 4° C. Vials were sealed with rubber caps. The gaseous phase in the vials was removed using vacuum and then was replaced with a gas mixture of methane or propylene and oxygen at a 1:1, v/v ratio. Oxidation of other gaseous n-alkanes and n-alkanes was examined as described above. For liquid substrates, 10 μl of substrate was used directly.
The hydroxylation of methane and the epoxidation of propylene by particulate fractions of methane-utilizing bacteria required oxygen and NADH. The question of whether the same or a similar enzyme was involved in the oxidation of both substrates was examined by substrate competition experiments. The experiment consisted of determining the effect of methane on the oxidation of propylene to propylene oxide by the P(40) particulate fraction of Methylosinus sp. (CRL-15, NRRL B-11,202).

[5] = target: T1, cell-free fractions of Methylococcus capsulatus (CRL M1, NRRL B-11,219) (Methylococcus capsulatus, UniProt G1UBD1+Q603F1+Q607G3); assay: Epoxidation and hydroxylation activities in cell-free fractions; format: biochemical
T1 sequence (G1UBD1 33-414): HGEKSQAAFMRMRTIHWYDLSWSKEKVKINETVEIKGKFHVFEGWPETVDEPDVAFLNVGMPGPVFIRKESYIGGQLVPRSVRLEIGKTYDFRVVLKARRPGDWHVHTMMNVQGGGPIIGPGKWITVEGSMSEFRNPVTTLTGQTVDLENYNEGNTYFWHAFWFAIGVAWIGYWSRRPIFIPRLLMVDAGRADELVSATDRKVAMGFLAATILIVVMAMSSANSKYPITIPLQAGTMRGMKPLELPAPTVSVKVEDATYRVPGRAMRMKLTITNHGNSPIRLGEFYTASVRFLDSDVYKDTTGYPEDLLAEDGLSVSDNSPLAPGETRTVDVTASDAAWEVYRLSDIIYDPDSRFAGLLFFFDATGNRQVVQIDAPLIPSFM
T1 sequence (Q607G3 1-247): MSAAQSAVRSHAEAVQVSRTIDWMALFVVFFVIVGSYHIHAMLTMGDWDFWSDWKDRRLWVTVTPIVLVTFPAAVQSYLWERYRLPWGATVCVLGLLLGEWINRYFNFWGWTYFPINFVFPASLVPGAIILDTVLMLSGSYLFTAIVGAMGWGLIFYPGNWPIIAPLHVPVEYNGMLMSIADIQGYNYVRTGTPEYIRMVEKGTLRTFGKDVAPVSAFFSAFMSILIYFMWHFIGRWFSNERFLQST
T1 sequence (Q603F1 1-260): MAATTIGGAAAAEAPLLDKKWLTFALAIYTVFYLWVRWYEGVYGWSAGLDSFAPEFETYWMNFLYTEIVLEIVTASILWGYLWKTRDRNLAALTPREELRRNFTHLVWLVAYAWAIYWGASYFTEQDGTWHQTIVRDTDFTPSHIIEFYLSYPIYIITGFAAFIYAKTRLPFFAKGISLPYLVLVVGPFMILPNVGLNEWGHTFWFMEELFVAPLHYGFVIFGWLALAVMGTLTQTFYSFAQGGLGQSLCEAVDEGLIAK
Procedure: Cells of methane-grown Methylococcus capsulatus (CRL M1, NRRL B-11,219) were obtained by the method of Example 1. […] However, when the cells were disrupted by passing twice through a French pressure cell (1000 Kg. pressure), both activities were found in the crude extract after 10,000×g. centrifugation. All of the activity in the crude extract was collected as a particulate fraction by further centrifugation of the crude extract at 40,000×g. for 90 min. at 4° C.
^a The cells were disrupted by French Press as described above. NADH
[…] was added into the reaction mixture where indicated.
The amount of protein in the particulate fraction and the 40,000 ×
g. supernatant fraction used was 1 mg. and 2.5 mg., respectively. Each
assay contained 0.5 ml. reaction mixture.

[6] = particulate fraction (10,000 × g.-40,000 × g.), 1 mg. protein
[7] = supernatant fraction of 40,000 × g., 2.5 mg. protein

SMILES	Conversion Rate [1] [μmoles/hr/^5 mg. protein]	Conversion Rate [2] [μmoles/hr/^5 mg. protein]	Conversion Rate [3] [μmoles/hr/^5 mg. protein]	Propylene Oxide Produced [4] [μmoles/hr./mg. protein]	Oxidation Rate [5, 6] [nmoles/30 min/assay]	Oxidation Rate ([5]; particulate fraction + NADH) [nmoles/30 min/assay]	Oxidation Rate ([5]; supernatant fraction + NADH) [nmoles/30 min/assay]	Oxidation Rate [5, 7] [nmoles/30 min/assay]
CCCC [Butane]	0.09	1.0	1.5					
C [Methane]				0	500	650	0	0
CCC [Propane]	0.20	1.1	2.5					
C=CC [Propylene]				4.3	750	900	0	0

— patent US4347319A, “Microbiological epoxidation process” (priority 1980, dated 1982)
